Tests used:
GDM-1 = assay: cells; assay type: functional, cell-based; conditions: Homo sapiens;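 further: cell viability readout used to measure growth inhibition of human GDM-1 cells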
Description: SANGER: Inhibition of human GDM-1 cell growth in a cell viability assay.

Daudi = assay: cells; assay type: functional, cell-based; conditions: Homo sapiens;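 further: growth inhibition of Daudi cells, read out by a viability assay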
Description: SANGER: Inhibition of human Daudi cell growth in a cell viability assay.

SK-MM-2 = assay: cells; assay type: functional, cell-based; conditions: Homo sapiens;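 further: growth inhibition of human SK-MM-2 cells, read out with a cell viability assay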
Description: SANGER: Inhibition of human SK-MM-2 cell growth in a cell viability assay.

NCI-H2171 = assay: cells; assay type: functional, cell-based; conditions: Homo sapiens;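 further: growth inhibition of human NCI-H2171 cells, read out by a cell viability assay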
Description: SANGER: Inhibition of human NCI-H2171 cell growth in a cell viability assay.

NCI-H1436 = assay: cells; assay type: functional, cell-based; conditions: Homo sapiens;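 further: growth suppression of human NCI-H1436 cells, determined with a cell viability readout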
Description: SANGER: Inhibition of human NCI-H1436 cell growth in a cell viability assay.

Raji = assay: cells; assay type: functional, cell-based; conditions: Homo sapiens;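 further: cell viability assay measuring inhibition of Raji cell growth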
Description: SANGER: Inhibition of human Raji cell growth in a cell viability assay.

NCI-H1694 = assay: cells; assay type: functional, cell-based; conditions: Homo sapiens;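 further: cell viability assay measuring inhibition of growth in human NCI-H1694 cells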
Description: SANGER: Inhibition of human NCI-H1694 cell growth in a cell viability assay.

NCI-H1417 = assay: cells; assay type: functional, cell-based; conditions: Homo sapiens;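 further: human NCI-H1417 cells, growth inhibition determined with a cell viability readout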
Description: SANGER: Inhibition of human NCI-H1417 cell growth in a cell viability assay.

BL-70 = assay: SANGER: Inhibition of human BL-70 cell growth in a cell viability assay.; assay type: functional, cell-based
P31-FUJ = assay: cells; assay type: functional, cell-based; conditions: Homo sapiens;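 further: growth inhibition of P31-FUJ cells, read out with a viability assay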
Description: SANGER: Inhibition of human P31-FUJ cell growth in a cell viability assay.

EW-22 = assay: cells; assay type: functional, cell-based; conditions: Homo sapiens;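 further: growth inhibition of the EW-22 cell line, measured with a cell viability readout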
Description: SANGER: Inhibition of human EW-22 cell growth in a cell viability assay.

SUP-T1 = assay: cells; assay type: functional, cell-based; conditions: Homo sapiens;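 further: growth inhibition of human SUP-T1 cells, read out as cell viability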
Description: SANGER: Inhibition of human SUP-T1 cell growth in a cell viability assay.

MDA-MB-134-VI = assay: cells; assay type: functional, cell-based; conditions: Homo sapiens
Description: SANGER: Inhibition of human MDA-MB-134-VI cell growth in a cell viability assay.

SU-DHL-1 = assay: SANGER: Inhibition of human SU-DHL-1 cell growth in a cell viability assay.; assay type: functional, cell-based
LU-165 = assay: cells; assay type: functional, cell-based; conditions: Homo sapiens
Description: SANGER: Inhibition of human LU-165 cell growth in a cell viability assay.

SCC-3 = assay: cells; assay type: functional, cell-based; conditions: Homo sapiens;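 further: cell viability assay measuring inhibition of SCC-3 cell growth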
Description: SANGER: Inhibition of human SCC-3 cell growth in a cell viability assay.

CESS = assay: SANGER: Inhibition of human CESS cell growth in a cell viability assay.; assay type: functional, cell-based
JIYOYE = assay: cells; assay type: functional, cell-based; conditions: Homo sapiens
Description: SANGER: Inhibition of human JiyoyeP-2003 cell growth in a cell viability assay.

SNU-16 = assay: cells; assay type: functional, cell-based; conditions: Homo sapiens;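 further: growth inhibition of human SNU-16 cells, determined with a cell viability readout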
Description: SANGER: Inhibition of human NCI-SNU-16 cell growth in a cell viability assay.

KMS-12-PE = assay: cells; assay type: functional, cell-based; conditions: Homo sapiens;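 further: growth inhibition of human KMS-12-PE cells, measured with a cell viability assay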
Description: SANGER: Inhibition of human KMS-12-PE cell growth in a cell viability assay.

LC-1F = assay: cells; assay type: functional, cell-based; conditions: Homo sapiens;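 further: growth inhibition of human LC-1F cells, read out with a cell viability assay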
Description: SANGER: Inhibition of human LC-1F cell growth in a cell viability assay.

WSU-NHL = assay: cells; assay type: functional, cell-based; conditions: Homo sapiens;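 further: growth inhibition of human WSU-NHL cells, read out with a cell viability assay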
Description: SANGER: Inhibition of human WSU-NHL cell growth in a cell viability assay.

NCI-H1882 = assay: cells; assay type: functional, cell-based; conditions: Homo sapiens;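 further: growth inhibition of the cell line, determined with a viability assay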
Description: SANGER: Inhibition of human NCI-H1882 cell growth in a cell viability assay.

COR-L279 = assay: SANGER: Inhibition of human COR-L279 cell growth in a cell viability assay.; assay type: functional, cell-based
RPMI-6666 = assay: cells; assay type: functional, cell-based; conditions: Homo sapiens
Description: SANGER: Inhibition of human RPMI-6666 cell growth in a cell viability assay.

MHH-CALL-2 = assay: cells; assay type: functional, cell-based; conditions: Homo sapiens;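 further: growth inhibition of the cell line, read out in a cell viability assay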
Description: SANGER: Inhibition of human MHH-CALL-2 cell growth in a cell viability assay.

MONO-MAC-6 = assay: cells; assay type: functional, cell-based; conditions: Homo sapiens;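 further: cell viability assay measuring growth inhibition of human MONO-MAC-6 cells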
Description: SANGER: Inhibition of human MONO-MAC-6 cell growth in a cell viability assay.

K052 = assay: cells; assay type: functional, cell-based; conditions: Homo sapiens;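 further: Read-out from a cell viability assay, IC50 reflecting suppression of K052 cell growth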
Description: SANGER: Inhibition of human K052 cell growth in a cell viability assay.

KARPAS-422 = assay: cells; assay type: functional, cell-based; conditions: Homo sapiens
Description: SANGER: Inhibition of human KARPAS-422 cell growth in a cell viability assay.

NCI-H2141 = assay: cells; assay type: functional, cell-based; conditions: Homo sapiens;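 further: growth inhibition of human NCI-H2141 cells, read out with a cell viability assay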
Description: SANGER: Inhibition of human NCI-H2141 cell growth in a cell viability assay.

DG-75 = assay: cells; assay type: functional, cell-based; conditions: Homo sapiens;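 further: growth inhibition of DG-75 cells, read out with a cell viability assay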
Description: SANGER: Inhibition of human DG-75 cell growth in a cell viability assay.

LP-1 = assay: cells; assay type: functional, cell-based; conditions: Homo sapiens;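 further: growth inhibition of human LP-1 cells, with the read-out taken from a cell viability assay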
Description: SANGER: Inhibition of human LP-1 cell growth in a cell viability assay.

ARH-77 = assay: cells; assay type: functional, cell-based; conditions: Homo sapiens;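 further: growth inhibition of ARH-77 cells, read out by a cell viability assay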
Description: SANGER: Inhibition of human ARH-77 cell growth in a cell viability assay.

SCLC-21H = assay: cells; assay type: functional, cell-based; conditions: Homo sapiens;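 further: growth inhibition of cultured human SCLC-21H cells, read out with a cell viability assay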
Description: SANGER: Inhibition of human SCLC-21H cell growth in a cell viability assay.

NCI-H719 = assay: cells; assay type: functional, cell-based; conditions: Homo sapiens;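 further: growth inhibition of the cultured cell line, read out with a viability assay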
Description: SANGER: Inhibition of human NCI-H719 cell growth in a cell viability assay.

RL = assay: cells; assay type: functional, cell-based; conditions: Homo sapiens
Description: SANGER: Inhibition of human RL cell growth in a cell viability assay.

EB-3 = assay: cells; assay type: functional, cell-based; conditions: Homo sapiens;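 further: human EB-3 cells, growth inhibition read out via a cell viability assay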
Description: SANGER: Inhibition of human EB-3 cell growth in a cell viability assay.

LOUCY = assay: cells; assay type: functional, cell-based; conditions: Homo sapiens;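 further: growth inhibition of human LOUCY cells, read out with a cell viability assay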
Description: SANGER: Inhibition of human LOUCY cell growth in a cell viability assay.

NCI-H2081 = assay: cells; assay type: functional, cell-based; conditions: Homo sapiens;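 further: growth inhibition of human NCI-H2081 cells, read out with a cell viability assay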
Description: SANGER: Inhibition of human NCI-H2081 cell growth in a cell viability assay.

HCC1599 = assay: cells; assay type: functional, cell-based; conditions: Homo sapiens;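 further: growth inhibition of HCC1599 cells, read out in a cell viability assay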
Description: SANGER: Inhibition of human HCC1599 cell growth in a cell viability assay.

KNS-62 = assay: cells; assay type: functional, cell-based; conditions: Homo sapiens;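 further: inhibition of cell growth, read out with a cell viability assay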
Description: SANGER: Inhibition of human KNS-62 cell growth in a cell viability assay.

NBsusSR = assay: cells; assay type: functional, cell-based; conditions: Homo sapiens;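 further: growth inhibition of the human cell line, read out with a cell viability assay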
Description: SANGER: Inhibition of human NBsusSR cell growth in a cell viability assay.

TGBC11TKB = assay: cells; assay type: functional, cell-based; conditions: Homo sapiens;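 further: growth inhibition of human TGBC11TKB cells, measured by a cell viability assay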
Description: SANGER: Inhibition of human TGBC11TKB cell growth in a cell viability assay.

D-566MG = assay: cells; assay type: functional, cell-based; conditions: Homo sapiens
HuO9 = assay: cells; assay type: functional, cell-based, Homo sapiens; conditions: Homo sapiens, HuO9;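 further: growth inhibition of HuO9 cells, read out with a cell viability assay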
Description: SANGER: Inhibition of human HuO9 cell growth in a cell viability assay.

NCI-H1703 = assay: cells; assay type: functional, cell-based, Homo sapiens; conditions: Homo sapiens, NCI-H1703;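 further: growth inhibition of NCI-H1703 cells, read out via a cell viability assay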
Description: SANGER: Inhibition of human NCI-H1703 cell growth in a cell viability assay.

SW900 = assay: cells; assay type: functional, cell-based; conditions: Homo sapiens;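 further: IC50 is the concentration that inhibits SW900 cell growth, measured by a cell viability assay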
Description: SANGER: Inhibition of human SW900 cell growth in a cell viability assay.

NCI-H630 = assay: cells; assay type: functional, cell-based, Homo sapiens; conditions: Homo sapiens, NCI-H630;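 further: growth inhibition of NCI-H630 cells, read out with a cell viability assay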
Description: SANGER: Inhibition of human NCI-H630 cell growth in a cell viability assay.

NCI-H2029 = assay: cells; assay type: functional, cell-based; conditions: Homo sapiens;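 further: Read-out is a viability assay on the cultured cells, and IC50 is the concentration that suppresses cell growth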
Description: SANGER: Inhibition of human NCI-H2029 cell growth in a cell viability assay.

BALL-1 = assay: cells; assay type: functional, cell-based; conditions: Homo sapiens;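 further: growth inhibition of BALL-1 cells, read out with a cell viability assay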
Description: SANGER: Inhibition of human BALL-1 cell growth in a cell viability assay.

TI-73 = assay: cells; assay type: functional, cell-based; conditions: Homo sapiens;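 further: cell viability assay measuring how much compounds suppress growth of the cultured cell line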
Description: SANGER: Inhibition of human TI-73 cell growth in a cell viability assay.

D-423MG = assay: cells; assay type: functional, cell-based; conditions: Homo sapiens
Description: SANGER: Inhibition of human D-423MG cell growth in a cell viability assay.

SW 1116 = assay: cells; assay type: functional, cell-based; conditions: Homo sapiens;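 further: growth inhibition of SW1116 cells, read out with a cell viability assay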
Description: SANGER: Inhibition of human SW1116 cell growth in a cell viability assay.

A549 = assay: cells; assay type: functional, cell-based; conditions: Homo sapiens;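 further: growth inhibition of A549 cells, read out with a cell viability assay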
Description: SANGER: Inhibition of human A549 cell growth in a cell viability assay.

NCI-H1048 = assay: cells; assay type: functional, cell-based; conditions: Homo sapiens;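 further: growth inhibition of human NCI-H1048 cells, read out with a cell viability assay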
Description: SANGER: Inhibition of human NCI-H1048 cell growth in a cell viability assay.

NCI-H1666 = assay: cells; assay type: functional, cell-based; conditions: Homo sapiens;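 further: growth inhibition of the cell line, read out with a cell viability assay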
Description: SANGER: Inhibition of human NCI-H1666 cell growth in a cell viability assay.

NCI-H2291 = assay: cells; assay type: functional, cell-based; conditions: Homo sapiens
Description: SANGER: Inhibition of human NCI-H2291 cell growth in a cell viability assay.

BOKU = assay: cells; assay type: functional, cell-based; conditions: Homo sapiens;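 further: growth inhibition of the human BOKU cell line, read out by a cell viability assay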
Description: SANGER: Inhibition of human BOKU cell growth in a cell viability assay.

Measured: IC50

C=C1C(=O)O[C@@H]2C3O[C@]3(C)CC/C=C(\C)CC[C@@H]12 (some centres undefined)
> 5 µM: Raji | P31-FUJ | EW-22 | SUP-T1 | SU-DHL-1 | LU-165 | JIYOYE | KMS-12-PE | WSU-NHL | COR-L279 | RPMI-6666 | DG-75 | ARH-77 | RL | LOUCY | NCI-H2081
2800 nM: SCC-3
not listed: KNS-62 | NBsusSR | TGBC11TKB | D-566MG | HuO9 | NCI-H1703 | SW900 | NCI-H630 | NCI-H2029 | BALL-1 | TI-73 | D-423MG | SW 1116 | A549 | NCI-H1048 | NCI-H1666 | NCI-H2291 | BOKU
> 5000 nM: all other assays above

CN(Cc1cnc2nc(N)nc(N)c2n1)c1ccc(C(=O)N[C@@H](CCC(=O)O)C(=O)O)cc1 [METHOTREXATE]
> 0.2 µM: EW-22
29.6 nM: NBsusSR
> 200 nM: KNS-62 | TGBC11TKB | D-566MG | HuO9 | NCI-H1703 | SW900 | NCI-H630 | NCI-H2029 | BALL-1 | TI-73 | D-423MG | SW 1116 | A549 | NCI-H1048 | NCI-H1666 | NCI-H2291

CCc1nc(N)nc(N)c1-c1ccc(Cl)cc1 [PYRIMETHAMINE]
5710 nM: CESS
16300 nM: MONO-MAC-6
1840 nM: SCC-3
> 20000 nM: GDM-1 | Daudi | SK-MM-2 | NCI-H2171 | NCI-H1436 | NCI-H1694 | NCI-H1417 | MDA-MB-134-VI | SNU-16 | LC-1F | NCI-H1882 | MHH-CALL-2 | K052 | NCI-H2141 | LP-1 | SCLC-21H | NCI-H719 | EB-3 | HCC1599
19.5 µM: ARH-77
> 20 µM: Raji | P31-FUJ | EW-22 | SUP-T1 | LU-165 | KMS-12-PE | WSU-NHL | RL | NCI-H2081
6.37 µM: COR-L279
10.8 µM: SU-DHL-1
10.9 µM: JIYOYE | LOUCY
14600 nM: BL-70
14.6 µM: RPMI-6666 | DG-75
18200 nM: KARPAS-422

CN1CCN(CCOc2cc(OC3CCOCC3)c3c(Nc4c(Cl)ccc5c4OCO5)ncnc3c2)CC1 [SARACATINIB]
790 nM: NCI-H1436
> 2 µM: Raji | P31-FUJ | EW-22 | SUP-T1 | SU-DHL-1 | LU-165 | JIYOYE | KMS-12-PE | WSU-NHL | COR-L279 | RPMI-6666 | DG-75 | ARH-77 | RL | LOUCY | NCI-H2081
not listed: KNS-62 | NBsusSR | TGBC11TKB | D-566MG | HuO9 | NCI-H1703 | SW900 | NCI-H630 | NCI-H2029 | BALL-1 | TI-73 | D-423MG | SW 1116 | A549 | NCI-H1048 | NCI-H1666 | NCI-H2291
> 2000 nM: all other assays above

CNC(=O)c1cc(Oc2ccc(NC(=O)Nc3ccc(Cl)c(C(F)(F)F)c3)cc2)ccn1 [SORAFENIB]
> 4000 nM: Daudi | SK-MM-2 | NCI-H1694 | NCI-H1417 | BL-70 | MDA-MB-134-VI | SCC-3 | CESS | SNU-16 | LC-1F | NCI-H1882 | MHH-CALL-2 | KARPAS-422 | NCI-H2141 | LP-1 | SCLC-21H | NCI-H719 | EB-3 | HCC1599
4.18 nM: MONO-MAC-6
907 nM: GDM-1
2400 nM: NCI-H2171
> 4 µM: Raji | P31-FUJ | EW-22 | SUP-T1 | SU-DHL-1 | LU-165 | JIYOYE | KMS-12-PE | WSU-NHL | COR-L279 | RPMI-6666 | DG-75 | ARH-77 | RL | LOUCY | NCI-H2081
1220 nM: NCI-H1436
2750 nM: K052

CCC(=O)N1CCN(c2ccc(-n3c(=O)ccc4cnc5ccc(-c6cnc7ccccc7c6)cc5c43)cc2C(F)(F)F)CC1 [TORIN1]
0.108 µM: JIYOYE | COR-L279
48.8 nM: HCC1599
89.4 nM: LP-1
967 nM: NCI-H719
3.37 nM: BL-70
143 nM: MDA-MB-134-VI
0.645 µM: SU-DHL-1
697 nM: NCI-H1417
372 nM: GDM-1 | BOKU
119 nM: K052
302 nM: SNU-16
> 1.2 µM: Raji | P31-FUJ | SUP-T1 | LU-165 | KMS-12-PE | WSU-NHL | RL | NCI-H2081
31 nM: CESS
0.0639 µM: LOUCY
> 1200 nM: NCI-H2171 | NCI-H1436 | SCLC-21H
335 nM: MHH-CALL-2
124 nM: KARPAS-422
72.1 nM: MONO-MAC-6
107 nM: SK-MM-2
0.288 µM: RPMI-6666
0.262 µM: DG-75
0.0728 µM: ARH-77
39.9 nM: LC-1F
129 nM: SCC-3
1190 nM: NCI-H2141
36.4 nM: EB-3
167 nM: NCI-H1882
507 nM: NCI-H1694
42.3 nM: Daudi

Cc1cc(Nc2cc(N3CCN(C)CC3)nc(Sc3ccc(NC(=O)C4CC4)cc3)n2)n[nH]1 [TOZASERTIB]
390 nM: BL-70
> 2 µM: Raji | P31-FUJ | SUP-T1 | SU-DHL-1 | LU-165 | JIYOYE | KMS-12-PE | WSU-NHL | COR-L279 | RPMI-6666 | DG-75 | ARH-77 | RL | LOUCY | NCI-H2081
636 nM: SNU-16
373 nM: KARPAS-422
809 nM: HCC1599
> 2000 nM: GDM-1 | Daudi | SK-MM-2 | NCI-H2171 | NCI-H1436 | NCI-H1694 | NCI-H1417 | MDA-MB-134-VI | SCC-3 | BOKU | LC-1F | NCI-H1882 | MHH-CALL-2 | NCI-H2141 | LP-1 | NCI-H719 | EB-3
78.8 nM: MONO-MAC-6
1970 nM: SCLC-21H
313 nM: CESS
195 nM: K052

From ChEMBL document CHEMBL1201861, “Genomics of Drug Sensitity in Cancer screening data, Wellcome Trust Sanger Institute”
